“And” between values parts separate entries of the source, which are not always exact repeats. Identical values can stand only once. Inconclusive results and toxic doses are left out. Peptide text beside a SMILES is read from it. * marks the point of attachment. Cbz = O=C(OCc1ccccc1)*
Test system: P388 leukemia ip, CD2F1 mice, survival T/C
Test: NCI In Vivo Anticancer Drug Screen. Data for tumor model P388 Leukemia (intraperitoneal) in CD2F1 (CDF1) mice
Conditions: endpoint: median survival time, higher = longer survival
Summary of the method: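 Mice carrying the transplanted tumor received test compound or vehicle. Survival was recorded in each group, and the value is the treated-group measurement divided by that of the vehicle-treated control group.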

[1] = dose: 25.0 mg/kg/injection, schedule: Q01DX005 (ip), vehicle: saline with Tween-80
[2] = dose: 50.0 mg/kg/injection, schedule: Q01DX005 (ip), vehicle: saline with Tween-80
[3] = dose: 100.0 mg/kg/injection, schedule: Q01DX005 (ip), vehicle: saline with Tween-80
[4] = dose: 200.0 mg/kg/injection, schedule: Q01DX005 (ip), vehicle: saline with Tween-80
[5] = dose: 50.0 mg/kg/injection, schedule: Q01DX005 (ip), vehicle: Klucel (hydroxypropylcellulose) (HPC)
[6] = dose: 100.0 mg/kg/injection, schedule: Q01DX005 (ip), vehicle: Klucel (hydroxypropylcellulose) (HPC)
[7] = dose: 200.0 mg/kg/injection, schedule: Q01DX005 (ip), vehicle: Klucel (hydroxypropylcellulose) (HPC)
[8] = dose: 100.0 mg/kg/injection, schedule: Q01DX001 (ip), vehicle: Klucel (hydroxypropylcellulose) (HPC)
[9] = dose: 200.0 mg/kg/injection, schedule: Q01DX001 (ip), vehicle: Klucel (hydroxypropylcellulose) (HPC)
[10] = dose: 100.0 mg/kg/injection, schedule: Q01DX001 (ip), vehicle: saline with Tween-80
[11] = dose: 200.0 mg/kg/injection, schedule: Q01DX001 (ip), vehicle: saline with Tween-80
[12] = dose: 400.0 mg/kg/injection, schedule: Q01DX001 (ip), vehicle: saline with Tween-80
[13] = dose: 60.0 mg/kg/injection, schedule: Q01DX005 (ip), vehicle: saline with Tween-80
[14] = dose: 120.0 mg/kg/injection, schedule: Q01DX005 (ip), vehicle: saline with Tween-80
[15] = dose: 240.0 mg/kg/injection, schedule: Q01DX005 (ip), vehicle: saline with Tween-80
[16] = dose: 100.0 mg/kg/injection, schedule: Q04DX002 (ip), vehicle: saline with Tween-80
[17] = dose: 200.0 mg/kg/injection, schedule: Q04DX002 (ip), vehicle: saline with Tween-80
[18] = dose: 400.0 mg/kg/injection, schedule: Q04DX002 (ip), vehicle: saline with Tween-80

In the case of `Cc1ccc(C(=Nc2ccccc2)N=P(c2ccccc2)(c2ccccc2)c2ccccc2)cc1`, the T/C [1] is reported as 103 % of control, the T/C [2] is reported as 113 % of control and 122 % of control and the T/C [3] is reported as 120 % of control.
In the case of `Cc1cc2cc3c(=O)n(C)c(=O)nc-3n(C)c2cc1C`, the T/C [2] is reported as 92 % of control, the T/C [3] is reported as 98 % of control and the T/C [4] is reported as 95 % of control.
`O=C(NC(CO)C(=O)NC(Cc1ccc(O)cc1)C(=O)O)OCc1ccccc1` (stereo not drawn) (Cbz-Ser-Tyr-OH; configuration not given here) was tested, and the T/C [5] was 98 % of control, the T/C [6] was 100 % of control and the T/C [7] was 101 % of control.
For `CS(=N)(=O)CCC(N)C(=O)O` (stereo unspecified) (tested in a mixture with another compound), the T/C (dose: 25.0 mg/kg/injection, schedule: Q01DX001 (ip), vehicle: saline) was 100 % of control, the T/C (dose: 50.0 mg/kg/injection, schedule: Q01DX001 (ip), vehicle: saline) was 105 % of control and the T/C (dose: 100.0 mg/kg/injection, schedule: Q01DX001 (ip), vehicle: saline) was 105 % of control.
`Cc1[nH]nc2oc(=O)c3ccccc3c12` was tested, and the T/C [5] was 105 % of control, the T/C [6] was 102 % of control and the T/C [7] was 102 % of control.
In the case of `Nc1nc2ccccc2n1C(=O)C(F)(F)F`, the T/C [8] is reported as 98 % of control and the T/C [9] is reported as 116 % of control.
For `CCCn1c(Cl)c(/C=N\Nc2ccc([N+](=O)[O-])cc2)c2ccccc21`, the T/C [10] was 103 % of control, the T/C [11] was 95 % of control and the T/C [12] was 95 % of control.
In the case of `Cc1cc2c(=O)cc(-c3ccccc3)oc2c(C(N)=O)c1C`, the T/C [13] is reported as 99 % of control, the T/C [14] is reported as 98 % of control and the T/C [15] is reported as 93 % of control.
For `COC(=O)N/N=C(/CC1(O)C(=O)Nc2ccc(Br)cc21)c1ccc(Cl)cc1Cl` (stereo unspecified), the T/C [16] was 89 % of control, the T/C [17] was 95 % of control and the T/C [18] was 100 % of control.
With `COc1c(CCl)cc(-c2sc3ccccc3c(=O)c2CCl)cc1CCl` the T/C [1] was 106 % of control and 93 % of control, the T/C [2] was 100 % of control and 114 % of control and 97 % of control and the T/C [3] was 100 % of control and 106 % of control. The T/C [4] was 108 % of control and 124 % of control.
For `Cc1c(Cl)c(O)cc2oc3cc(O)cc(O)c3c(=O)c12`, the T/C (dose: 10.0 mg/kg/injection, schedule: Q04DX003 (ip), vehicle: Klucel (hydroxypropylcellulose) (HPC)) was 105 % of control, the T/C (dose: 20.0 mg/kg/injection, schedule: Q04DX003 (ip), vehicle: Klucel (hydroxypropylcellulose) (HPC)) was 102 % of control and the T/C (dose: 40.0 mg/kg/injection, schedule: Q04DX003 (ip), vehicle: Klucel (hydroxypropylcellulose) (HPC)) was 105 % of control.
With `CCCCCCCCCCCCCCN=Cc1c(O)c(O)c(C(C)C)c2cc(C)c(-c3c(C)cc4c(C(C)C)c(O)c(O)c(C=NCCCCCCCCCCCCCC)c4c3O)c(O)c12` the T/C (dose: 12.5 mg/kg/injection, schedule: Q01DX005 (ip), vehicle: Klucel (hydroxypropylcellulose) (HPC)) was 98 % of control, the T/C (dose: 25.0 mg/kg/injection, schedule: Q01DX005 (ip), vehicle: Klucel (hydroxypropylcellulose) (HPC)) was 90 % of control and the T/C [5] was 98 % of control. For the same compound, the T/C [6] was 95 % of control.
In the case of `CC1(C)CN2C(c3ccccc3)=NN(c3ccccc3)C2(C)C1` (stereo unspecified), the T/C [10] is reported as 98 % of control, the T/C [11] is reported as 99 % of control and the T/C [12] is reported as 100 % of control.
`Cc1c(Cl)cccc1-n1c(=O)c2[nH]c3ccccc3sc=2c1=O` was tested, and the T/C [13] was 100 % of control, the T/C [14] was 92 % of control and the T/C [15] was 97 % of control.
For `CCOC(=O)CNC(=O)Sc1ccc(C(C)(C)C)cc1C`, the T/C (dose: 50.0 mg/kg/injection, schedule: Q01DX005 (ip), vehicle: saline + Tween-80 + alcohol) was 100 % of control (2×) and 107 % of control, the T/C (dose: 100.0 mg/kg/injection, schedule: Q01DX005 (ip), vehicle: saline + Tween-80 + alcohol) was 110 % of control and 111 % of control and 118 % of control and the T/C (dose: 200.0 mg/kg/injection, schedule: Q01DX005 (ip), vehicle: saline + Tween-80 + alcohol) was 114 % of control and 120 % of control. The T/C (dose: 400.0 mg/kg/injection, schedule: Q01DX005 (ip), vehicle: saline + Tween-80 + alcohol) was 114 % of control.
With `COc1ccc(C2Oc3cc(O)c4c(=O)c5c(OC)cccc5oc4c3OC2CO)cc1O` (stereo unspecified) the T/C (dose: 6.25 mg/kg/injection, schedule: Q01DX009 (ip), vehicle: saline + alcohol) was 111 % of control, the T/C (dose: 12.5 mg/kg/injection, schedule: Q01DX009 (ip), vehicle: saline + alcohol) was 100 % of control and the T/C (dose: 25.0 mg/kg/injection, schedule: Q01DX009 (ip), vehicle: saline + alcohol) was 100 % of control.
For `Cn1c(=O)[nH]c(=O)c2nc(-c3ccccc3)c(-c3ccccc3)nc21`, the T/C [8] was 96 % of control, the T/C [9] was 99 % of control and the T/C (dose: 400.0 mg/kg/injection, schedule: Q01DX001 (ip), vehicle: Klucel (hydroxypropylcellulose) (HPC)) was 96 % of control.
With `CCC(CCC(C)C1CCC2C3CC=C4CC(O)CCC4(C)C3CCC12C)C(C)C` (stereo unspecified) (tested in a mixture with another compound) the T/C (dose: 50.0 mg/kg/injection, schedule: Q01DX009 (ip), vehicle: Klucel (hydroxypropylcellulose) (HPC)) was 105 % of control and the T/C (dose: 100.0 mg/kg/injection, schedule: Q01DX009 (ip), vehicle: Klucel (hydroxypropylcellulose) (HPC)) was 90 % of control.
`[Cl][Pd][Cl].[NH-]C(C(=O)OCc1ccccc1)c1ccccc1.[NH-]C(C(=O)OCc1ccccc1)c1ccccc1` (stereo unspecified) was tested, and the T/C (dose: 6.25 mg/kg/injection, schedule: Q04DX003 (ip), vehicle: saline) was 100 % of control, the T/C (dose: 12.5 mg/kg/injection, schedule: Q04DX003 (ip), vehicle: saline) was 100 % of control and the T/C (dose: 25.0 mg/kg/injection, schedule: Q04DX003 (ip), vehicle: saline) was 97 % of control. The T/C (dose: 100.0 mg/kg/injection, schedule: Q04DX003 (ip), vehicle: saline) was 108 % of control.
With `CNCc1c(C)[nH]c2ccc(N(C)C)cc2c1=O` the T/C [13] was 101 % of control and the T/C [14] was 104 % of control.
With `CCOC(=O)c1c(N)c(C(=O)c2ccccc2)n2ccc3ccccc3c12` the T/C [16] was 100 % of control, the T/C [17] was 99 % of control and the T/C [18] was 92 % of control.
In the case of `Cc1ccc(NC(=O)NCCCCCCNC(=O)Nc2ccc(C)cc2)cc1`, the T/C [13] is reported as 96 % of control, the T/C [14] is reported as 94 % of control and the T/C [15] is reported as 106 % of control.
`CC1SC2(C(=O)Nc3ccc(Br)cc32)N(c2ccc(Cl)cc2)C1=O` (stereo unspecified) was tested, and the T/C [13] was 97 % of control, the T/C [14] was 109 % of control and the T/C [15] was 100 % of control.
For `Cc1ccc2nc(=O)c3cccnc3n2c1`, the T/C (dose: 3.75 mg/kg/injection, schedule: Q01DX005 (ip), vehicle: saline) was 103 % of control, the T/C (dose: 7.5 mg/kg/injection, schedule: Q01DX005 (ip), vehicle: saline) was 97 % of control and the T/C (dose: 15.0 mg/kg/injection, schedule: Q01DX005 (ip), vehicle: saline) was 98 % of control.
In the case of `CCOC(=O)Cn1ncnn1`, the T/C (dose: 100.0 mg/kg/injection, schedule: Q04DX003 (ip), vehicle: Klucel (hydroxypropylcellulose) (HPC)) is reported as 103 % of control, the T/C (dose: 200.0 mg/kg/injection, schedule: Q04DX003 (ip), vehicle: Klucel (hydroxypropylcellulose) (HPC)) is reported as 100 % of control and the T/C (dose: 400.0 mg/kg/injection, schedule: Q04DX003 (ip), vehicle: Klucel (hydroxypropylcellulose) (HPC)) is reported as 102 % of control.
With `Nc1nc(=S)c2[nH]c(=S)[nH]c2[nH]1` the T/C (dose: 25.0 mg/kg/injection, schedule: Q04DX003 (ip), vehicle: saline with Tween-80) was 118 % of control, the T/C (dose: 50.0 mg/kg/injection, schedule: Q04DX003 (ip), vehicle: saline with Tween-80) was 118 % of control and the T/C (dose: 100.0 mg/kg/injection, schedule: Q01DX009 (ip), vehicle: saline with Tween-80) was 118 % of control. The T/C (dose: 100.0 mg/kg/injection, schedule: Q04DX003 (ip), vehicle: saline with Tween-80) was 118 % of control, the T/C (dose: 264.0 mg/kg/injection, schedule: Q04DX003 (ip), vehicle: saline with Tween-80) was 150 % of control and the T/C (dose: 400.0 mg/kg/injection, schedule: Q01DX009 (ip), vehicle: saline with Tween-80) was 113 % of control. The T/C (dose: 600.0 mg/kg/injection, schedule: Q04DX003 (ip), vehicle: saline with Tween-80) was 150 % of control.
For `CCN(CC)c1ccc2nc3ccc(N=Nc4ccc(O)cc4)cc3[n+](-c3ccccc3)c2c1`, the T/C [2] was 118 % of control and the T/C [3] was 114 % of control.
`O=C(O)c1ccnc(C(=O)O)c1` was tested, and the T/C [10] was 100 % of control and the T/C [11] was 90 % of control.
With `NC1=C(O)C(=O)C(c2cccc(O)c2)O1` (stereo unspecified) the T/C [13] was 103 % of control, the T/C [14] was 100 % of control and the T/C [15] was 103 % of control.
`Cc1cccc(-n2c(-c3ccc(Cl)cc3)cs/c2=N\Nc2nnc(-c3ccccc3)c(-c3ccccc3)n2)c1` was tested, and the T/C [16] was 88 % of control, the T/C [17] was 87 % of control and the T/C [18] was 89 % of control.
`Cc1c(O)c2ccc(N(C)C)cc2[nH]c1=O` was tested, and the T/C [2] was 101 % of control, the T/C [3] was 95 % of control and the T/C [4] was 100 % of control.

Reference: PubChem BioAssay AID330 (DTP/NCI, 2004)
